One assay addresses T1, mouse SR-B1 (Mus musculus, UniProt Q61009).
T1 construct: expressed in transfected cells
T1 sequence (Q61009 1-509): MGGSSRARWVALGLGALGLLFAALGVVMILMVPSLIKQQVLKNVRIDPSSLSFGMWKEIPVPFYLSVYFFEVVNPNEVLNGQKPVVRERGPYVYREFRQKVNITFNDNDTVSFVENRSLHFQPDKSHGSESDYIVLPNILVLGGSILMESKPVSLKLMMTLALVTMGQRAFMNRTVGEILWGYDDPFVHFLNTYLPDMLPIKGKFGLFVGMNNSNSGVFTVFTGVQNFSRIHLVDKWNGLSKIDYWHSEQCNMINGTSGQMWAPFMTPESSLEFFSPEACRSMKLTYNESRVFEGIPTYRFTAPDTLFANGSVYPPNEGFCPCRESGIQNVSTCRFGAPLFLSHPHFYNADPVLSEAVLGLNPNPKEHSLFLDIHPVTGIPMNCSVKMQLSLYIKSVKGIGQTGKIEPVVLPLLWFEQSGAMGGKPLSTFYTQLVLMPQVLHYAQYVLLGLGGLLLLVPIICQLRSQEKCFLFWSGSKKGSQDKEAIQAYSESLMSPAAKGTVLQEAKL
Kind of assay: Effect of ezetimibe on cholesterol uptake, SR-B1 transfected CHO cells. The class given is cell-based. Particulars: EZ (10 μM), SR-BI. Here is the method: The effect of ezetimibe on the ability of CHO cells stably transfected with mouse or rat NPC1L1 or mouse SR-B1 to take up ^3H-labeled cholesterol was evaluated in pulse-chase experiments. One cDNA clone of mouse NPC1L1 (C7) and three clones of rat NPC1L1 (C7, C17 and C21) were evaluated. The ability of CHO cells stably transfected with mouse SR-B1, mouse NPC1L1 and rat NPC1L1 to take up labeled cholesterol, in the absence of ezetimibe, was also evaluated in the pulse-chase experiments. Data generated in these experiments are set forth, below, in Tables 4 and 5. Additionally, the quantity of total cholesterol taken up by transfected and untransfected CHO cells in the presence of four different unlabeled cholesterol concentrations was also evaluated.
Starve. The maintenance media (F12 HAMS, 1% Pen/Strep, 10% FCS) was removed and the cells were rinsed with serum-free HAMS media. The serum-free media was then replaced with 1 mL “starve” media (F12 HAMS, Pen/Strep, 5% lipoprotein deficient serum (LPDS). The cells were then starved overnight.
Pre-Incubation/pre-dose. Media was removed from all plates and replaced with fresh starve media and preincubated for 30 minutes. Half of the wells received media containing ezetimibe (stock soln in EtOH; final conc.=10 μM).
^3H-Cholesterol Pulse. The following was added directly to each well: • 0.5 μCi ^3H-cholesterol (˜1.1×10^6 dpm/well) in 50 μl of a mixed bile salt micelle • 4.8 mM sodium taurocholate (2.581 mg/mL) • 0.6 mM sodium oleate (0.183 mg/mL) • 0.25 mM cholesterol (0.1 mg/mL) • Dispersed in “starve” media by ultrasonic vibration • Final media cholesterol concentration=5 μg/mL
Labeled cholesterol pulse time points were 4, 12, 24 minutes and 4 hours. Triplicate wells were prepared for each treatment.
Wash. At designated times, media was aspirated and cells were washed once with Hobbs Buffer A (50 mM Tris, 0.9% NaCl, 0.2% bovine serum albumin (BSA), pH 7.4) and once with Hobbs Buffer B (50 mM Tris, 0.9% NaCl, pH 7.4 (no BSA)) at 37° C.
A. 4, 12, 24 minute time points: Cells were digested overnight with 0.2N NaOH, 2 mL/well, room temperature. One 1.5 mL aliquot was removed from each well, neutralized & counted for radioactivity by scintillation counting.
B. 4 hour time point: The digested cells were analyzed by thin-layer chromatography to determine the content of cholesterol ester in the cells.
Extracts were spotted onto TLC plates and run for 30 minutes in 2 ml hexane:isopropanol (3:2) mobile phase for 30 minutes, followed by a second run in 1 ml hexane:isopropanol (3:2) mobile phase for 15 minutes.
C. Protein determination of cell extracts. Plates containing a sample of the cell extracts were placed on orbital shaker at 120 rpm for indicated times and then extracts are pooled into 12×75 tubes. Plates were dried and NaOH (2 ml/well) added. The protein content of the samples were then determined. Two additional 50 μl aliquots from all wells were assayed for total protein by the Pierce micro BCA method. The quantity of labeled cholesterol observed in the cells was normalized to the quantity of protein in the cells.

For assay [1], the system named is intestinal cholesterol absorption. The experiment in a line: Cholesterol absorption in mice, dual fecal isotope ratio method. Format: in vivo, mouse. The protocol:
Cholesterol absorption in the mice was determined by the dual fecal isotope ratio method as described by Altmann et al. (Biochim. Biophys. Acta. 1580(1): 77-93 (2002)). Mice (n—4-6/group) were fed a standard rodent chow diet and in some groups treated daily with a maximally effective dose of ezetimibe (10 mg/kg). Mice were gavaged with ^14C-cholesterol (1 μCi, 0.1 mg unlabeled cholesterol) and ^3H-sitostanol (2 μCi) in 0.1 ml corn oil. Feces were collected for 2 days and fecal ^14C-cholesterol and ^3H-sitostanol levels were determined by combustion in a Packard Oxidizer. The fraction of cholesterol absorbed, as evaluated by the fecal dual isotope technique, was similar in wild type (+/+) and heterozygous mice (+/−) fed a chow diet (heterozygous mice absorbed 46±5% and age matched wild type mice absorbed 51±3% of the dose of ^14C-cholesterol). The NPC1L1 knockout mice (−/−) absorbed 15.6±0.4% of the ^14C-cholesterol, which was similar to the wild type mice treated with a maximally effective dose of ezetimibe (16.1±0.3%), and reduced by 69% compared to wild type mice (p<0.001). In NPC1L1 knockout treated with ezetimibe at 10 mg/kg/day, cholesterol absorption was similar to that seen in the untreated knockout mice (16.2±0.6% compared to 15.6%±0.4%, respectively). […]

The target of assay [2] is T2, CHO cells expressing SR-B1 (Mus musculus, UniProt Q61009).
T2 construct: expressed in transfected cells; host or cells: CHO cells
T2 sequence (Q61009 1-509): T1 sequence (Q61009 1-509)
The experiment in a line: Cholesterol uptake assay (Example 4). Particulars: 10 μM ezetimibe. The class given is cell-based. Here is the method: CHO cells expressing either SR-B1 or three different clones of rat NPC1L1 or one clone of mouse NPC1L1 were starved overnight in cholesterol free media then dosed with [3H]-cholesterol in a mixed synthetic micelle emulsion for 4 min, 8 min, 12 min or 24 m in the absence or presence of 10 µM ezetimibe. The cells were harvested and the lipids were organically extracted. The extracted lipids were spotted on thin-layer chromatography (TLC) plates and resolved within an organic vapor phase. The free cholesterol bands for each assay were isolated and counted in a scintillation counter.

In the case of `O=C1[C@H](CC[C@H](O)c2ccc(F)cc2)[C@@H](c2ccc(O)cc2)N1c1ccc(F)cc1` [ezetimibe], at mouse SR-B1 (4 Hour Pulse), the “Cholesteryl Ester, dpm ± sem” value stood at 9305 ± 401 dpm; the “Cholesteryl Ester, dpm/mg protein ± sem” value amounted to 72782 ± 3181 dpm/mg protein; the “Free Cholesterol, dpm ± sem” value is given as 194519 ± 474 dpm; the “Free Cholesterol, dpm/mg protein ± sem” value is given as 1521341 ± 4185 dpm/mg protein. Also, on mouse SR-B1 (4 Min Pulse), the “Total Cholesterol, dpm ± sem” value is given as 10968 ± 821 dpm and the “Total Cholesterol, dpm/mg protein ± sem” value was determined as 92474 ± 2902 dpm/mg protein. On mouse SR-B1 (12 Min Pulse), the “Total Cholesterol, dpm ± sem” value is reported as 12349 ± 298 dpm and the “Total Cholesterol, dpm/mg protein ± sem” value is given as 98956 ± 4447 dpm/mg protein. In addition, at mouse SR-B1 (24 Min Pulse), the “Total Cholesterol, dpm ± sem” value is 23558 ± 1310 dpm and the “Total Cholesterol, dpm/mg protein ± sem” value is 198725 ± 11713 dpm/mg protein. The “fraction of ^14C-cholesterol absorbed” value in assay [1] (NPC1L1 knockout mice, ezetimibe 10 mg/kg/day) is listed as 16.2±0.6%. The “fraction of ^14C-cholesterol absorbed” value in assay [1] (wild type mice, ezetimibe 10 mg/kg daily) is 16.1±0.3%. The “[^3H]-cholesterol uptake” value in assay [2] is given as “inhibited”.
